Results published in PubChem BioAssay AID2060900 (Molecular Pharmacology Branch, DTP, NCI, 2025).

System: 521955-158-R2-J5-PDC complex spheroids, viability
Experiment: Anticancer human tumor 521955-158-R2-J5-PDC patient-derived pancreatic carcinoma cell line growth inhibition [RAS]
Details: for IC50: curve of first compound; for viability, T/C: stronger effect = lower value; active means viability on the fitted dose curve at most 10% of control; inactive means the rest
Description: RAS pathway inhibitors in Combinations in Complex Spheroids
A high-throughput screen of multi-cell type tumor spheroids was designed to identify active combinations of RAS pathway inhibitors and targeted small molecules. Complex spheroids include a stromal component modeled by human endothelial cells (HUVEC) and fibroblasts modeled by human mesenchymal stem cells (MSCs). The concentration ranges selected for each drug and investigational agent were based upon clinically achievable concentrations if the clinical Cmax of the agent was known.
Compounds. The drugs and investigational agents: abemaciclib (NSC768073), cobimetinib (NSC768068), divarasib (GDC6063, NSC841802), docetaxel (NSC628503), GDC-1971 (RLY-1971, NSC841576), gemcitabine (NSC613327), inavolisib (NSC800729), ipatasertib (NSC767898), KB-0742 (NSC834161), MRTX-1133 (NSC836407), osimertinib (NSC779217), RMC-4630 (NSC839698), RMC-6236 (NSC851965), RMC-6291 (NSC852671), Ro-3306 (NSC812927), sapanisertib (NSC764658), SN-38 (NSC673596), staurosporine (NSC755774), SY5609 (NSC837396), and tovorafenib (DAY101, NSC766906), were obtained from the National Cancer Institute (NCI) Developmental Therapeutics Program Chemical Repository. The FDA-approved anticancer drug set is available from the NCI Developmental Therapeutics Program. […] The stock solutions were prepared in dimethyl sulfoxide (DMSO, Sigma-Aldrich, St. Louis, MO, cat. D2650) at 800-fold the tested concentration and stored at -70 degrees C prior to their use. All drugs and investigational agents were tested over a range starting from a high concentration at or near the clinical Cmax and decreasing in half-log increments. If the clinical Cmax for an agent had not been determined, the highest concentration tested was 10 microM.
Cell Culture. All cells were maintained in an incubator at 37 degrees C and 5% CO2 with 95% humidity. The PDC lines were cultured according to standard operating procedures established by the NCI PDMR. All PDCs were thawed and cultured in Matrigel-coated flasks prepared with a working solution of 1X Ham's F-12 nutrient mix, without supplementation (Invitrogen, Waltham, MA, cat. 11765054), 100 U/mL penicillin-streptomycin (Invitrogen, cat. 15140122), and 2.5% Matrigel (Corning Inc., Corning, NY, cat. 354248) for the first three passages. The 362531-283-R-J2-PDC and 782815-120-R-J1-PDC lines were cultured in 6C/Colon 1B media, which includes advanced DMEM/F-12 (Thermo Fisher Scientific, cat. 12634028), 10 mM HEPES (Thermo Fisher Scientific, cat. 15630080), 1X GlutaMAX supplement (Thermo Fisher Scientific, cat. 35050061), 0.1 mg/mL primocin (InvivoGen, San Diego, CA, cat. ant-pm-2), 10% defined fetal bovine serum, heat inactivated (HyClone Laboratories Inc., Logan, UT, cat. SH30070.03HI), 50% L-WRN conditioned media (ATCC, cat. CRL-3276), 1.25 mM N-Acetyl-L-cysteine (Sigma-Aldrich, cat. A9165), 10 mM nicotinamide (Sigma-Aldrich, cat. N0636), 1X B-27 supplement (Thermo Fisher Scientific, cat. 17504044), 1X N-2 supplement (Thermo Fisher Scientific, cat. 17502048), 50 ng/mL human EGF (Thermo Fisher Scientific, cat. PHG0311), and 10 microM Y-27632 dihydrochloride (Tocris Bioscience, cat. 1254). The K12877-001-R-J1-PDC line was cultured in 6I media, which includes all 6C/Colon 1B media plus 10 ng/mL human FGF-10 (PeproTech, cat. 100-26), 1 ng/mL human FGF-2 (PeproTech, cat. 100-18B), 1 µM prostaglandin E2 (Tocris Bioscience, cat. 2296), […] hydrocortisone (Sigma-Aldrich, cat. H4001), and […] bovine insulin (Sigma-Aldrich, cat. I6634). The K86415-001-R-J1-PDC line was cultured in 6D media, which includes all 6C/Colon 1B media components minus the L-WRN conditioned media. The 485176-168-R4-J1-PDC was cultured in PANC media, which includes all 6C/Colon 1B media plus 100 ng/mL human FGF-10 (PeproTech, cat. 100-26), 500 nM SB-431542 (Selleckchem, cat. S1067), and 10 nM gastrin (Tocris Bioscience, cat. 3006). […]

[1] = second compound 0.0316 µM, first compound 0.0316 µM
[2] = second compound 0.0316 µM, first compound 0.1 µM
[3] = second compound 0.0316 µM, first compound 0.316 µM
[4] = second compound 0.0316 µM, first compound 1 µM
[5] = second compound 0.1 µM, first compound 0.0316 µM
[6] = second compound 0.1 µM, first compound 0.1 µM
[7] = second compound 0.1 µM, first compound 0.316 µM
[8] = second compound 0.1 µM, first compound 1 µM
[9] = second compound 0.316 µM, first compound 0.0316 µM
[10] = second compound 0.316 µM, first compound 0.1 µM
[11] = second compound 0.316 µM, first compound 0.316 µM
[12] = second compound 0.316 µM, first compound 1 µM
[13] = second compound 1 µM, first compound 0.0316 µM
[14] = second compound 1 µM, first compound 0.1 µM
[15] = second compound 1 µM, first compound 0.316 µM
[16] = second compound 1 µM, first compound 1 µM
[17] = second compound 3.16 µM, first compound 0.0316 µM
[18] = second compound 3.16 µM, first compound 0.1 µM
[19] = second compound 3.16 µM, first compound 0.316 µM
[20] = second compound 3.16 µM, first compound 1 µM
[21] = second compound 10 µM, first compound 0.0316 µM
[22] = second compound 10 µM, first compound 0.1 µM
[23] = second compound 10 µM, first compound 0.316 µM
[24] = second compound 10 µM, first compound 1 µM
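Further: compound exposure lasted seven days before the viability read.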
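Wherever viability, T/C is given: spheroids also contain HUVEC endothelial cells and mesenchymal stem cells as stroma.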

CC1(O)CCCC1n1c(=O)c(C(F)F)cc2cnc(NC3CCN(S(C)(=O)=O)CC3)nc21 (centres undefined) + C#Cc1c(F)ccc2cc(O)cc(-c3ncc4c(N5CC6CCC(C5)N6)nc(OCC56CCCN5CC(F)C6)nc4c3F)c12
inactive: viability, T/C [1] 53.9% | viability, T/C [2] 48% | viability, T/C [3] 60.1% | viability, T/C [4] 68.4% | viability, T/C (second compound 0.0316 µM, first compound 3.16 µM) 75.1% | viability, T/C (second compound 0.0316 µM, first compound 10 µM) 24.9% | viability, T/C [5] 48.8% | viability, T/C [6] 56.6% | viability, T/C [7] 43.4% | viability, T/C [8] 53.9% | viability, T/C (second compound 0.1 µM, first compound 3.16 µM) 73% | viability, T/C (second compound 0.1 µM, first compound 10 µM) 21.3% | viability, T/C [9] 44.5% | viability, T/C [10] 37.4% | viability, T/C [11] 41.1% | viability, T/C [12] 51.3% | viability, T/C (second compound 0.316 µM, first compound 3.16 µM) 63.1% | viability, T/C (second compound 0.316 µM, first compound 10 µM) 19.5% | viability, T/C [13] 52.3% | viability, T/C [14] 41.4% | viability, T/C [15] 39.8% | viability, T/C [16] 47.8% | viability, T/C (second compound 1 µM, first compound 3.16 µM) 59.5% | viability, T/C (second compound 1 µM, first compound 10 µM) 21.6% | viability, T/C [17] 45.9% | viability, T/C [18] 31.5% | viability, T/C [19] 38.8% | viability, T/C [20] 40.6% | viability, T/C (second compound 3.16 µM, first compound 3.16 µM) 56.6% | viability, T/C (second compound 3.16 µM, first compound 10 µM) 24.4% | viability, T/C [21] 42.4% | viability, T/C [22] 30.6% | viability, T/C [23] 40.4% | viability, T/C [24] 46.2% | viability, T/C (second compound 10 µM, first compound 3.16 µM) 62.8% | viability, T/C (second compound 10 µM, first compound 10 µM) 12.3%
3760 nM: IC50 (second compound 0.1 µM)
31.6 nM: IC50 (second compound 1 µM)
> 10000 nM: IC50 (second compound 0.0316 µM)
< 31.6 nM: IC50 (second compound 0.316 µM) | IC50 (second compound 3.16 µM) | IC50 (second compound 10 µM)

CCN1CCN(Cc2ccc(Nc3ncc(F)c(-c4cc(F)c5nc(C)n(C(C)C)c5c4)n3)nc2)CC1 + C#Cc1c(F)ccc2cc(O)cc(-c3ncc4c(N5CC6CCC(C5)N6)nc(OCC56CCCN5CC(F)C6)nc4c3F)c12
inactive: viability, T/C (second compound 0.0316 µM, first compound 0.00316 µM) 66.7% | viability, T/C (second compound 0.0316 µM, first compound 0.01 µM) 69.4% | viability, T/C [1] 57.5% | viability, T/C [2] 73.8% | viability, T/C [3] 71.5% | viability, T/C [4] 72.8% | viability, T/C (second compound 0.1 µM, first compound 0.00316 µM) 46% | viability, T/C (second compound 0.1 µM, first compound 0.01 µM) 65.2% | viability, T/C [5] 59.2% | viability, T/C [6] 61.2% | viability, T/C [7] 65.9% | viability, T/C [8] 66.6% | viability, T/C (second compound 0.316 µM, first compound 0.00316 µM) 61.2% | viability, T/C (second compound 0.316 µM, first compound 0.01 µM) 53.5% | viability, T/C [9] 46.9% | viability, T/C [10] 52.9% | viability, T/C [11] 51.1% | viability, T/C [12] 67.9% | viability, T/C (second compound 1 µM, first compound 0.00316 µM) 58.5% | viability, T/C (second compound 1 µM, first compound 0.01 µM) 56.4% | viability, T/C [13] 58% | viability, T/C [14] 45.5% | viability, T/C [15] 49.5% | viability, T/C [16] 56.1% | viability, T/C (second compound 3.16 µM, first compound 0.00316 µM) 50.2% | viability, T/C (second compound 3.16 µM, first compound 0.01 µM) 44.8% | viability, T/C [17] 47.8% | viability, T/C [18] 42.6% | viability, T/C [19] 59.9% | viability, T/C [20] 51% | viability, T/C (second compound 10 µM, first compound 0.00316 µM) 39.7% | viability, T/C (second compound 10 µM, first compound 0.01 µM) 37.2% | viability, T/C [21] 30.9% | viability, T/C [22] 31.4% | viability, T/C [23] 36% | viability, T/C [24] 24.7%
316 nM: IC50 (second compound 1 µM)
< 3.16 nM: IC50 (second compound 3.16 µM) | IC50 (second compound 10 µM)
> 1000 nM: IC50 (second compound 0.0316 µM) | IC50 (second compound 0.1 µM) | IC50 (second compound 0.316 µM)
